Measurements taken from patent US7851467B2, “Carbamate compounds as 5-HT4 receptor agonists” (Theravance, Inc., priority 2005, dated 2010).

Molecular target: T1, hERG cardiac potassium channel (Homo sapiens, UniProt Q12809)
T1 construct: host or cells: CHO-K1
Experiment: In vitro voltage clamp assay of inhibition of potassium ion current in whole cells expressing hERG
Type: cell-based
Conditions: CHO-K1 cells stably transfected with hERG, pH 7.4, five-minute exposure
Procedure: Assay 4: In Vitro Voltage Clamp Assay of Inhibition of Potassium Ion Current in Whole Cells Expressing the hERG Cardiac Potassium Channel
CHO-K1 cells stably transfected with hERG cDNA were obtained from Gail Robertson at the University of Wisconsin. Cells were held in cryogenic storage until needed. Cells were expanded and passaged in Dulbecco's Modified Eagles Medium/F12 supplemented with 10% fetal bovine serum and 200 μg/mL geneticin. Cells were seeded onto poly-D-lysine (100 μg/mL) coated glass coverslips, in 35 mm^2 dishes (containing 2 mL medium) at a density that enabled isolated cells to be selected for whole cell voltage-clamp studies. The dishes were maintained in a humidified, 5% CO2 environment at 37° C.
Extracellular solution was prepared at least every 7 days and stored at 4° C. when not in use. […]
The coverslips on which the cells were seeded were transferred to a recording chamber and perfused continuously. […] Peak current amplitudes during the repolarization phase were determined using pClamp software. […]
Peak current amplitudes during the repolarization phase were determined using pCLAMP software. […] The normalized current means and standard errors for each condition were calculated and plotted versus the time course of the experiment. […]

T1 sequence (Q12809 whole entry): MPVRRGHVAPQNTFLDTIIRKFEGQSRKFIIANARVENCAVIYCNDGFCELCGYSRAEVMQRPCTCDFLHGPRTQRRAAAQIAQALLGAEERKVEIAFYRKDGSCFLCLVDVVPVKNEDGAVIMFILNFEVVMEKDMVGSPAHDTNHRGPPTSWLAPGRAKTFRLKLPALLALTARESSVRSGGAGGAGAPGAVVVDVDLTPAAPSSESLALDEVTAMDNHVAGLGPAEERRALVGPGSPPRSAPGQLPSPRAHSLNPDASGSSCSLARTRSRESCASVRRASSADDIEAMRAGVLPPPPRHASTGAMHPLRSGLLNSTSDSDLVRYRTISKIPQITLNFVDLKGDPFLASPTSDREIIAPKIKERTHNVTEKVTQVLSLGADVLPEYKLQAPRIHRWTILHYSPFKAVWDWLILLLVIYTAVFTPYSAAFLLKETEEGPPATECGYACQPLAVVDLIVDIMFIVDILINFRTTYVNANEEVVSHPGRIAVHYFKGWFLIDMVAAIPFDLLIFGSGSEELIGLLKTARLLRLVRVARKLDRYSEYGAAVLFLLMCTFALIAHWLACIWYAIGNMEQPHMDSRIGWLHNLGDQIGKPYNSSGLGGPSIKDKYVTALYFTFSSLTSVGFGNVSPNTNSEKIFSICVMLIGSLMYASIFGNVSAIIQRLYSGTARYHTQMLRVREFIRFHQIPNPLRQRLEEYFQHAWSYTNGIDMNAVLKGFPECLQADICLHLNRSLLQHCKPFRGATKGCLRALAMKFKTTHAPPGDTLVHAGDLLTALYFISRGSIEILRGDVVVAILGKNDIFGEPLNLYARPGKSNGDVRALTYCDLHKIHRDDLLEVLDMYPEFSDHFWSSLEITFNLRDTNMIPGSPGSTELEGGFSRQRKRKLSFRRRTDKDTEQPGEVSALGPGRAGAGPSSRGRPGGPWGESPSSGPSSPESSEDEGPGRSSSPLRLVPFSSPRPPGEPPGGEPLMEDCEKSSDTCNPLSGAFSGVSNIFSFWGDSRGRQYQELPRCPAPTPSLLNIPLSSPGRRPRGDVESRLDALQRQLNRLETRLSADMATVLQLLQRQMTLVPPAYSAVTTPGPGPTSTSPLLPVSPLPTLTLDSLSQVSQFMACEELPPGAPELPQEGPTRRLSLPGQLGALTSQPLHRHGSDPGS

## CC(C)n1c(=O)n(C(=O)N[C@H]2C[C@H]3CC[C@@H](C2)N3CCCOC(=O)N2CCN(C(=O)C3CCCO3)CC2)c2ccccc21 (stereo partly drawn) [Example 1, 4-(tetrahydrofuran-2-carbonyl)piperazine-1-carboxylic acid 3-{(1S,3R,5R)-3-[(3-isopropyl-2-oxo-2,3-dihydrobenzoimidazole-1-carbonyl)amino]-8-aza-bicyclo[3.2.1]oct-8-yl}propyl ester]
  inhibition at 5 min, 3 µM: ~9%
